“And” between values parts separate entries of the source, which are not always exact repeats. Identical values can stand only once. Where no end group is shown, it is not given here.
Key:
in vitro = settings: human, ME180 cells
Description: (§1) ME180 cells, a cervical epithelial cell line, were obtained from the American Type Culture Collection. These cells were thawed from liquid nitrogen and grown in RPMI 1640 medium supplemented with 10t fetal bovine serum, glutamine and antibiotics. The cells were adherent and were trypsinized (0.5% trypsin in HBSS) to remove them from the flask for passaging and use in assays. For use in the microtiter transmission inhibition assay, ME180 cells were trypsinized, washed and seeded in 96-well flat bottom microtiter plates (COSTAR) at a density of 5×10^3 cells per well. The cells were incubated at 37° C. for 24 hours prior to the tart of the assay. H9 cells chronically infected with he SK1 isolate of HIV-1 were treated with 200 μg/ml mitomycin C for 60 minutes at 37° C. After treatment the cells were washed three times with tissue culture medium. The chronically infected lymphocytes were added to each well at a density of 2×10^4 cells per well. The concentration of mitomycin C used in the treatment of the lymphocytes was chosen to allow lymphocyte survival for the period of time required to transmit virus to the uninfected ME180 cells, but to die prior to the time of assay so as not to contribute to the p24 signal used as the endpoint (see below). In the transmission assay the lytic peptides D4E1 and D2A21, with and without 150 μg/ml pig mucin, were added prior to the addition of chronically infected cells or were mixed with the chronically infected cells prior to their addition to the monolayer of ME180 cells. Mucin was included because it is an abundant constituent of the normal vaginal secretions of a human being, thus any chemotherapeutic agent targeting HIV should be active in its presence if it is to have clinical value. […] The lymphocytes and peptide were co-cultured with the ME180 cells for 6 hours and then removed by washing the ME180 monolayer four times with PBS. The plate was then incubated at 37° C. for six days. Medium was removed and changed every 48 hours during the incubation stage. No further peptide was added after the initial dose. At six days post-co-cultivation, the supernatant was removed from the wells and evaluated for the quantity of p24 antigen by ELISA. The ELISA was performed according to the manufacturer's recommendations. The amount of virus production in wells treated with various concentrations of the peptides was evaluated with appropriate cell and virus controls. Data are reported as a percent of virus control at each drug concentration. Linear regression analysis was used to calculate the […] and IC95 concentrations of the transmission inhibitor. […] TI represents the toxicity index, which is the ratio of the TC50/IC50, and is an indication of the relative concentrations window that exists between efficacy and toxicity.

ME180 cells = test: toxicity (XTT) in transmission inhibition assay; settings: for TOXICITY VALUES (XTT), single samples: samples 1-3
Description: as §1

[1] = 0.32 μg/ml, with 150 μg/ml pig mucin
[2] = 1 μg/ml, with 150 μg/ml pig mucin
[3] = 3.2 μg/ml, with 150 μg/ml pig mucin
[4] = 10 μg/ml, with 150 μg/ml pig mucin
[5] = 32 μg/ml, with 150 μg/ml pig mucin
[6] = 100 μg/ml, with 150 μg/ml pig mucin

## FKLRAKIKVRLRAKIKL [D4E1]
In vitro
  viability at 6 h, 0.32 µg/mL: 98.6%
  viability at 6 h, 1 µg/mL: 99.2%
  viability at 6 h, 3.2 µg/mL: 95.4%
  viability at 6 h, 10 µg/mL: 97.7%
  viability at 6 h, 32 µg/mL: 100%
  viability at 6 h, 100 µg/mL: 27.1%
ME180 cells; 0.32 μg/ml, no mucin
  TOXICITY VALUES (XTT), MEAN: 0.521 O.D. @ 450/650 nm
  TOXICITY VALUES (XTT), single samples: 0.518 O.D. @ 450/650 nm and 0.528 O.D. @ 450/650 nm and 0.516 O.D. @ 450/650 nm
ME180 cells; [1]
  TOXICITY VALUES (XTT), MEAN: 0.521 O.D. @ 450/650 nm
  TOXICITY VALUES (XTT), single samples: 0.518 O.D. @ 450/650 nm and 0.528 O.D. @ 450/650 nm
ME180 cells; 1 μg/ml, no mucin
  TOXICITY VALUES (XTT), MEAN: 0.523 O.D. @ 450/650 nm
  TOXICITY VALUES (XTT), single samples: 0.535 O.D. @ 450/650 nm and 0.523 O.D. @ 450/650 nm and 0.511 O.D. @ 450/650 nm
ME180 cells; [2]
  TOXICITY VALUES (XTT), MEAN: 0.523 O.D. @ 450/650 nm
  TOXICITY VALUES (XTT), single samples: 0.535 O.D. @ 450/650 nm and 0.523 O.D. @ 450/650 nm and 0.511 O.D. @ 450/650 nm
ME180 cells; 3.2 μg/ml, no mucin
  TOXICITY VALUES (XTT), MEAN: 0.503 O.D. @ 450/650 nm
  TOXICITY VALUES (XTT), single samples: 0.486 O.D. @ 450/650 nm and 0.513 O.D. @ 450/650 nm
ME180 cells; [3]
  TOXICITY VALUES (XTT), MEAN: 0.503 O.D. @ 450/650 nm
  TOXICITY VALUES (XTT), single samples: 0.486 O.D. @ 450/650 nm and 0.513 O.D. @ 450/650 nm
ME180 cells; 10 μg/ml, no mucin
  TOXICITY VALUES (XTT), MEAN: 0.515 O.D. @ 450/650 nm
  TOXICITY VALUES (XTT), single samples: 0.493 O.D. @ 450/650 nm and 0.526 O.D. @ 450/650 nm and 0.524 O.D. @ 450/650 nm
ME180 cells; [4]
  TOXICITY VALUES (XTT), MEAN: 0.515 O.D. @ 450/650 nm
  TOXICITY VALUES (XTT), single samples: 0.493 O.D. @ 450/650 nm and 0.526 O.D. @ 450/650 nm and 0.524 O.D. @ 450/650 nm
ME180 cells; 32 μg/ml, no mucin
  TOXICITY VALUES (XTT), MEAN: 0.529 O.D. @ 450/650 nm
  TOXICITY VALUES (XTT), single samples: 0.551 O.D. @ 450/650 nm and 0.513 O.D. @ 450/650 nm and 0.524 O.D. @ 450/650 nm
ME180 cells; [5]
  TOXICITY VALUES (XTT), MEAN: 0.529 O.D. @ 450/650 nm
  TOXICITY VALUES (XTT), single samples: 0.551 O.D. @ 450/650 nm and 0.513 O.D. @ 450/650 nm and 0.524 O.D. @ 450/650 nm
ME180 cells; 100 μg/ml, no mucin
  TOXICITY VALUES (XTT), MEAN: 0.143 O.D. @ 450/650 nm
  TOXICITY VALUES (XTT), single samples: 0.138 O.D. @ 450/650 nm and 0.162 O.D. @ 450/650 nm and 0.128 O.D. @ 450/650 nm
ME180 cells; [6]
  TOXICITY VALUES (XTT), MEAN: 0.143 O.D. @ 450/650 nm
  TOXICITY VALUES (XTT), single samples: 0.138 O.D. @ 450/650 nm and 0.162 O.D. @ 450/650 nm and 0.128 O.D. @ 450/650 nm
